Data as given in ChEMBL document CHEMBL3399990, “Synthesis of mycothiol conjugate analogues and evaluation of their antimycobacterial activity” (Bioorg Med Chem Lett, 2015).
≈ marks a conversion by molar mass, not a printed value.

Columns and labels:
[1] = tested on: Mycolicibacterium smegmatis; experiment: Bacteriostatic activity against Mycobacterium smegmatis after 96 hrs by resazurin fluorescence assay; format: functional
1A9 = experiment: Cytotoxicity against human 1A9 cells after 48 hrs by MTT assay; format: functional, cell-based; conditions: 1A9, 48 h
[2] = Cytotoxicity against human HL60 cells after 48 hrs by MTT assay; format: functional, cell-based; conditions: HL-60, 48 h

Row | SMILES | MIC [1] | IC50 (1A9) | IC50 [2]
1 | CC(C)(C)OC(=O)N[C@@H](CSC(Cl)=C(Cl)Cl)C(=O)N[C@@H]1[C@@H](O)[C@H](O)[C@@H](CO)O[C@H]1SC1CCCCC1 | > 1000 µM | 33 µM | 16.5 µM
2 | N[C@@H](CSC(Cl)=C(Cl)Cl)C(=O)N[C@@H]1[C@@H](O)[C@H](O)[C@@H](CO)O[C@@H]1SC1CCCCC1 | 250 µM (≈ 127 µg/mL) | 79 µM | 76 µM
3 | N[C@@H](CSC(Cl)=C(Cl)Cl)C(=O)N[C@@H]1[C@@H](O)[C@H](O)[C@@H](CO)O[C@H]1SC1CCCCC1 | 250 µM (≈ 127 µg/mL) | 121 µM | 112 µM
4 | CC(C)(C)OC(=O)N[C@@H](CSC(Cl)=C(Cl)Cl)C(=O)N[C@@H]1[C@@H](O)[C@H](O)[C@@H](CO)O[C@@H]1SC1CCCCC1 | > 1000 µM | 103 µM | 60 µM
